Assays:
[1] = test system: tyrosine residues in the cytoplasmic domain of NGFR; assay: Tyrosine phosphorylation of ectodomain/NGFR chimeras expressed in COS1 cells (homophilic complex formation); format: cell-based; conditions: FIG. 9
Experimental: Cell lysate samples were subjected to separation on SDS-PAGE, followed by a transfer of the proteins in the gel to nitrocellulose membranes (Hybond-ECL, Amersham Pharmacia Biotech, Inc.). After blocking with a solution of 10% skim milk dissolved in TBS (20 mM Tris-HCl buffer, pH 7.5 containing 150 mM NaCl), the membrane was exposed to a monoclonal anti-FLAG M2 antibody (3 μg/ml) for detecting FLAG-tagged MT1-MMP and its mutants. In order to visualize the immunoreactive bands, the membrane was further exposed to an alkaline phosphatase-conjugated goat anti-mouse IgG antibody. For the purpose of detecting a phosphotyrosine residue in chimera proteins, a monoclonal anti-phosphotyrosine antibody, PY20 (1 μg/ml) was used.
By utilizing the above principle, a chimeric protein is first constructed consisting of the ectodomain of MT1-MMP and the transmembrane (TM) and cytoplasmic (CP) domains of NGFR (FIG. 8) in order to test for direct complex formation. When the ectodomain of this chimeric protein forms a homophilic complex in a similar manner, tyrosine residues in the cytoplasmic domain will be phosphorylated.
A FLAG-tagged MT1-MMP (MT1-F) expression construct as used herein was as described in Itoh, Y. et al., J. Biol. Chem. 274: 34260-34266, 1999. In addition, MT1-F was used as a template to generate cDNAs for MT1Cat-F (Δ Ile^318-Gly^535) and MT1PEX-F (ΔTyr^112-Pro^312) by the PCR extension method of Ho et al. (Ho, S. N. et al., Gene, 77: 51-59, 1989). The cDNA was subcloned into pSG5 (Stratagene, CA, USA). Chimera mutants of the ectodomain of MT1-F, MT1Cat-F, MT1PEX-F or MT4PEX-F, with the transmembrane (TM)/cytoplasmic (CP) domain of NGFR were also generated by the PCR method in a similar manner, and subcloned into pSG5. The MT1-MMP-derived sequence corresponded to Met^1 through Asp^515 of MT1-MMP, while the NGFR-derived sequence corresponded to Glu^384 through Gly^790 of NGFR (GenBank™ accession number M23102). The other chimera mutants were also composed from these corresponding sequences. All the PCR-generated fragments were confirmed by DNA sequencing.
Expression vectors for the protein were transfected into COS1 cells, using FuGENE6™ (Roche Molecular Biochemicals) according to the manufacturer's instructions. COS1 cells were seeded in 6-well plates at 1.5×10^5/well at 16 hrs before the transfection was performed. The COS1 cells were maintained in a HAM F-12 medium or DMEM containing 10% fetal bovine serum in a humidified incubator at 37° C. At 48 hrs after the transfection, the cells were collected for use in the experiments.
To monitor the dimer formation of the enzyme in the cells, another approach to detect the molecular interactions was executed. […]

[2] = test system: MT1-MMP; assay: In situ gelatin degrading assay (DQ gelatin or Alexa488-conjugated gelatin); format: cell-based, human; conditions: DQ gelatin; CHO-K1 (FIG. 13) or COS1 cells (FIG. 22)
Experimental: Two different in situ gelatin degrading assays were performed. One used DQ™ gelatin (Molecular Probes, Inc., OR, USA). DQ gelatin is a fluorescence-quenched gelatin substrate, and will fluoresce upon proteolytic cleavage. Glass cover slips were coated with 5% DQ™ gelatin in a 10 mg/ml unlabeled gelatin solution, and dried. Transfected cells were cultured on the cover slip in a humidified chamber for 16 hrs. The cells were then fixed with 3% para-formaldehyde and the degraded areas were visualized as those showing fluorescence.
The other assay used Alexa488-conjugated gelatin made with an Alexa488-labeling kit (Molecular Probes). The bottom surfaces of 4-well chamber slides (Nunc) were coated with Alexa488-conjugated gelatin according to the method of Yana, I. and Weiss, S. J., Mol. Biol. Cell, 11, 2387-2401, 2000. Transfected COS1 cells were cultured in the chamber slides for 16 hrs in a humidified culture incubator. The cells were then fixed with 3% para-formaldehyde in PBS, and the degraded area was analyzed under a fluorescence microscope. The degraded area was visualized as a dark, non-fluorescent area. Fluorescence images were analyzed using confocal microscopy (BioRad).
(§1) Next, to determine if MT1PEX-F affects the catalytic activity of MT1-MMP on the cell surface or not, tests for gelatin degrading activity and binding capacity to TIMP-2 were conducted using cells transfected in the same incubator. As shown in FIGS. 12 through 14, CHO-K1 cells were transfected with an expression vector for MT1-F, MT1-F/MT1PEX-F or MT1Cat-F, or a vector alone (Mock). The cells were then treated with trypsin, and separately seeded to: DQ™ gelatin-coated cover slips for testing the proteolytic activity (FIG. 13); and 24-well plates for TIMP-2 binding assay (FIG. 12) and for the activation of proMMP-2 (FIG. 14). Transfected cells on the DQ™ gelatin-coated cover slip as shown in FIG. 13 were incubated in a medium at 37° C. for 18 hrs, and the generated fluorescence was analyzed using confocal microscopy. Transfected cells on the 24-well plate as shown in FIG. 12 were incubated with 25 nM ^125I-labeled TIMP-2 in the presence or absence of BB-94 (50 μM) at 0° C. for 1 hr. MT1-MMP specific binding was calculated by subtracting the datum obtained in the presence of BB-94 (50 μM) from each datum derived from the corresponding experiments. Identically transfected cells on the 24-well plate as shown in FIG. 14 were subjected to the reaction with purified proMMP-2 in a serum-free medium at 37° C. for 18 hrs. The cells and culture supernatants were respectively subjected to Western blotting analysis using a monoclonal anti-FLAG M2 antibody, and gelatin zymography analysis. […] DQ™ gelatin is a fluorescence-quenched gelatin, which fluoresces upon proteolytic cleavage. […]

[3] = test system: MT1-MMP; assay: Activation of proMMP-2 by MT1-MMP on the cell surface of transfected cells (gelatin zymography); format: cell-based, human; conditions: transfected COS1 cells, exogenous purified proMMP-2 (FIGS. 2, 20)
Experimental: Gelatin zymography was conducted using an SDS-polyacrylamide gel (PAGE) containing gelatin (0.8 mg/ml) (Itoh, Y. et al., J. Biol. Chem., 273: 24360-24367, 1998). The samples were mixed with a SDS-PAGE loading buffer without a reducing agent and subjected to electrophoretic analysis at room temperature. Enzyme activity was visualized as a negative staining area with Coomassie Brilliant Blue R-250.
The expression construct for FLAG epitope ([…]-tagged MT1-MMP (MT1-F) described in Itoh, Y. et al., J. Biol. Chem., 274: 34260-34266, 1999 was used as a template to generate cDNA for MT1Cat-F (A Ile^318-Gly^535) by the PCR extension method of Ho et al., (Ho, S. N. et al., Gene, 77: 51-59, 1989). The cDNA was subcloned into pSG5 (Stratagene, CA, USA). The PCR-generated fragments were confirmed by DNA sequencing. COS1 cells were transfected with the expression vector for MT1-MMP mutant; MT1-F or MT1Cat-F, or a vector alone (Mock). Expression vectors for each protein were transfected using FuGENE6™ (Roche Molecular Biochemicals) according to the manufacturer's instructions. COS1 cells were seeded in 6-well plates at 1.5×10^5/well at 16 hrs before the transfection was performed. The COS1 cells were maintained in a HAM F-12 medium or DMEM containing 10% fetal bovine serum in a humidified incubator at 37° C. At 48 hrs after the transfection, the cells were collected for use in the experiments. The cells were incubated in the presence of purified proMMP-2 in a serum-free medium (0.25 μg/ml) at 37° C. for 18 hrs. Cell lysates were tested for the expression of the mutants, while culture supernatants were tested for the activation of proMMP-2.
To investigate roles of dimer formation upon the activation of proMMP-2, MT1-F was introduced into COS1 cells together with MT1PEX-F. The co-introduced cells were reacted with exogenously added proMMP-2. Thus, COS1 cells were co-transfected with the MT1-F and MT1PEX-F at indicated DNA amount ratios. Next, purified proMMP-2 (0.25 μg/ml) in a serum-free medium was reacted with the resulting cells at 37° C. for 18 hrs. MMP-2 in the culture supernatant was analyzed by gelatin zymography, and the cell lysates were subjected to Western blotting analysis using a monoclonal anti-FLAG M2 antibody.
as §1, with “experiments.” for “experiments. Identically transfected cells on the 24-well plate as shown in FIG. 14 were subjected to the reaction with purified proMMP-2 in a serum-free medium at 37° C. for 18 hrs. The cells and culture supernatants were respectively subjected to Western blotting analysis using a monoclonal anti-FLAG M2 antibody, and gelatin zymography analysis.”

[4] = molecular target: T1, proMMP-2 (Homo sapiens, UniProt P08253); assay: ProMMP-2 binding assay on transfected COS1 cells; format: cell-based; conditions: COS1 cells expressing the mutant (FIG. 21)
T1 construct: made in house; host or cells: HighFive insect cells infected with recombinant baculovirus; purified from culture supernatant
T1 sequence (P08253 30-660 limits assumed): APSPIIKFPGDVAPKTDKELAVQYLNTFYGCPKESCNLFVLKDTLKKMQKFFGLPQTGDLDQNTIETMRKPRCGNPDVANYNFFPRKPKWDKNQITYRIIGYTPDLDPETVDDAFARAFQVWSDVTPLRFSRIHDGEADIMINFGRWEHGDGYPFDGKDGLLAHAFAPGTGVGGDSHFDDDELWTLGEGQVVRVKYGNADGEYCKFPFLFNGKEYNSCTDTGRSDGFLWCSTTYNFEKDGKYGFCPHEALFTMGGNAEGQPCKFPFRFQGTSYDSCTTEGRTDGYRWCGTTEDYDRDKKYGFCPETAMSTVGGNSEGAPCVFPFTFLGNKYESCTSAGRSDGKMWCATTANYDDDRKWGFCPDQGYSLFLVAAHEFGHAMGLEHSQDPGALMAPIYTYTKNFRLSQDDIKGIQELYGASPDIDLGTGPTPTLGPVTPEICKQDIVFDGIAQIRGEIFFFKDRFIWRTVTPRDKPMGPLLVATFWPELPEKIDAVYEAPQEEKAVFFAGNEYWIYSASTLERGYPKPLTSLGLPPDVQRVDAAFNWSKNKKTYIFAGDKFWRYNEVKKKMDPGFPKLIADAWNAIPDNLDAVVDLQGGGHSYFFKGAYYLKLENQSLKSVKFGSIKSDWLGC
Experimental: Transfected COS1 cells were cultured in a 24-well plate (0.2×10^4/well). Forty-eight hours after transfection, the cells were washed three times with serum-free DMEM, and incubated with purified proMMP-2 (2 μg/ml) in the serum-free DMEM at 25° C. for 1 hr. The cells were then washed three times with serum-free DMEM containing 5% dimethyl sulfoxide (DMSO) to remove free proMMP-2, and lysed in 50 μl of a non-reducing SDS-loading buffer. MMP-2 bound to the cells was analyzed by gelatin zymography.

Substance | tyrosine phosphorylation of the chimera (Anti-PY) [1] | gelatin degrading (proteolytic) activity of cells expressing the mutant [2] | activation of proMMP-2 by cells expressing the mutant [3] | ternary complex formation with TIMP-2/proMMP-2 on the cell surface [4]
MT1-F/NGFR: Chimera of the ectodomain of MT1-F with the transmembrane/cytoplasmic domain of NGFR | phosphorylated | – | – | –
MT1-MT4PEX: MT1-MMP in which Cys319 to Cys508 is replaced with Cys336 to Cys527 of mouse MT4-MMP | – | showed proteolytic activity | did not activate proMMP-2 | can form a ternary complex
MT1Cat-F/NGFR: Chimera of the ectodomain of MT1Cat-F with the transmembrane/cytoplasmic domain of NGFR | extremely low | – | – | –
MT1PEX-F/NGFR: Chimera of the ectodomain of MT1PEX-F with the transmembrane/cytoplasmic domain of NGFR | strongly phosphorylated | – | – | –
MT4PEX-F/NGFR: Chimera of the ectodomain of MT4PEX-F with the transmembrane/cytoplasmic domain of NGFR | extremely low | – | – | –

Source: patent publication US20040120954A1, “Regulation of mt1-mmp activity” (priority 2000, published 2004)
